Measurements taken from patent US20110091570A1, “Compositions and Devices for Antisepsis and Anticoagulation” (priority 2008, published 2011).
Several values for one entry are separate records, joined by “and”; a condition that tells them apart may be missing. Equal entries are not always repeated.

What was measured:
[1] = test system: Staphylococcus aureus (ATCC 25923); assay: Bactericidal activity of NCT without and with heparin (CFU counts); type: cell-based
Method: FIG. 1 presents a plot of bactericidal activity of 1% NCT without and with 125 IE/mL heparin against Staphylococcus aureus ATCC 25923 at pH 7.1 and 37° C. Mean values standard error of the mean of three independent experiments. P>0.05 between NCT without and NCT with heparin.
NCT was dissolved in 0.1 M phosphate buffer containing either 125 IE/mL heparin or no heparin. The final NCT concentration was 1%. Various bacterial species were grown in tryptic soy broth overnight, were washed twice in saline and then suspended in the NCT and NCT/heparin solutions. The species were Staphylococcus aureus (ATCC 25923), Escherichia coli (ATCC 11229), Streptococcus pyogenes, Staphylococcus epidermidis, Pseudomonas aeruginosa, Proteus mirabilis, and methicillin-resistant Staphylococcus aureus. Controls were performed with the foregoing bacterial species suspended in 0.1 M phosphate buffer without additives and in 0.1 M phosphate buffer containing 125 IE/mL heparin. All of the solutions were incubated at 37° C. and pH 7.1. After 1, 3, 5, 8, and 10 minutes, aliquots of 100 μL were removed and diluted 10-fold or 100-fold in 0.6% sodium thiosulfate solution to inactivate the NCT. Aliquots (50 μL) of these dilutions were spread on tryptic soy agar plates. The plates were incubated at 37° C. and colony forming units of bacteria were counted after 24 and 48 hours. […]

[2] = test system: Staphylococcus epidermidis; assay: as above; type: cell-based
[3] = test system: Candida albicans, CBS 5982; assay: Fungicidal activity of NCT without and with heparin (CFU counts); type: cell-based; settings: 1% NCT, 125 IE/mL heparin, pH 7.1, 37° C., 30-120 min
Method: FIG. 9 presents a plot of fungicidal activity of 1% NCT without and with 125 IE/mL heparin against Candida albicans (CBS 5982) at pH 7.1 and 37° C. Mean values±standard error of the mean of three independent experiments. P>0.05 between NCT without and NCT with heparin.
NCT was dissolved in 0.1 M phosphate buffer containing either 125 IE/mL heparin or no heparin. The final NCT concentration was 1%. Yeast (Candida albicans, CBS 5982) grown in tryptic soy broth overnight was washed twice in saline and then suspended in the NCT and NCT/heparin solutions. Controls were performed with the yeast suspended in 0.1 M phosphate buffer without additives and in 0.1 M phosphate buffer containing 125 IE/mL heparin. After incubation times of 30, 60, 90 and 120 minutes at 37° C. and pH 7.1, aliquots of 100 μL were removed and diluted tenfold or 100-fold in 0.6% sodium thiosulfate solution to inactivate the NCT. Aliquots (50 μL) of these dilutions were spread on tryptic soy agar plates. The plates were incubated at 37° C. and colony forming units of Candida albicans were counted after 24 and 48 hours. The assays were performed three times serially and the mean count was reported (FIG. 9). […] Statistical analysis was performed by Student's paired t test and one way analysis of variance (P>0.05 between NCT without and NCT with heparin). […]

[4] = test system: Escherichia coli, ATCC 11229; assay: Bactericidal activity of NCT with heparin in human whole blood; type: cell-based; settings: 37° C.
Method: FIG. 11 presents a plot of bactericidal activity of 1% NCT with 125 IE/mL heparin in human blood against Escherichia coli (ATCC 11229) at pH 7.1 and 37° C. Mean values±standard error of the mean of three independent experiments. P<0.01 between NCT and control samples.
Bacteria (Staphylococcus aureus, ATCC 25923 and Escherichia coli, ATCC 11229) grown in tryptic soy broth overnight were washed twice in saline and suspended in human whole blood containing 125 IE/mL heparin. Different volumes of a saline solution of NCT sodium salt were added to the suspension so that the test samples contained 10%, 25%, 50%, and 75% blood. In addition, 100% blood plus 125 IE/mL heparin was tested at which NCT was directly dissolved in blood. The final NCT concentration after mixing blood and NCT solutions was 1% in all samples. Controls contained 100% blood plus 125 IE/mL heparin and 10%, 25%, 50% and 75% blood, respectively, in saline, plus 125 IE/mL heparin without NCT. All of the solutions were incubated at 37° C. and pH 7.36-7.44 (the pH of blood). After 1, 3, 5, 10, 15, 30, 45 and 60 minutes, aliquots of 100 μL were removed and diluted tenfold or 100-fold in 0.6% sodium thiosulfate solution to inactivate the NCT. Aliquots (50 μL) of these dilutions were spread on tryptic soy agar plates. The plates were incubated at 37° C. and colony forming units of bacteria were counted after 24 and 48 hours. […]

[5] = test system: citrate blood; assay: International normalized ratio (INR); type: biochemical, human; settings: Example 7; for International normalized ratio (INR): individual subjects 1-11; for International normalized ratio (INR), mean value: mean of 11 subjects
Method: Whole blood was taken from 11 volunteers and enriched with trisodium citrate (0.3 mL of a 0.106 molar solution per 3 mL whole blood) (S-Monovette®, Sarstedt, Nümbrecht, Germany). Commercial coagulation tests (as described in Example 6) were performed with the following samples: […]

[6] = test system: Swiss mice; assay: Intraperitoneal injection in Swiss mice; type: in vivo; settings: 1% NCT i.p., a further study
[7] = test system: rabbit eyes; settings: rabbit eyes [Ref. 13]; cited from earlier work
[8] = test system: chronic rhinosinusitis; settings: pilot study in chronic rhinosinusitis [Ref. 16]; cited from earlier work
[9] = test system: omniresistant Pseudomonas aeruginosa; settings: NCT irrigations, three patients [Ref 18]; cited from earlier work
[10] = 0.1% NCT, virtually identical experiments
[11] = 1% NCT, 125 IE/mL heparin, pH 7.1, 37° C., 1-10 min

**Q.** Which “influence of heparin on the killing of bacteria” value [1, 10] does the source give for O=S(=O)(O)CCNCl [NCT, N-chlorotaurine] here?
**A.** no statistically significant influence of heparin on the killing of bacteria

**Q.** And the “killing activity of NCT with vs without heparin” value [1, 11]?
**A.** no difference in the killing activity

**Q.** What about the “influence of heparin on the killing of bacteria” value [2, 10] of the same compound?
**A.** no statistically significant influence of heparin on the killing of bacteria

**Q.** And the “killing activity of NCT with vs without heparin” value [2, 11]?
**A.** no difference in the killing activity

**Q.** What about the “killing activity of NCT without vs with heparin” value [3] of the same compound?
**A.** no statistically significant difference in the killing activity

**Q.** What about the “bactericidal activity in blood” value ([4]; 1% NCT dissolved in 100% blood plus 125 IE/mL heparin) of the same compound?
**A.** no significant bactericidal activity was detected

**Q.** And the “bactericidal activity in blood” value ([4]; 1% NCT in 10%, 25%, 50% and 75% blood plus 125 IE/mL heparin)?
**A.** demonstrated bactericidal activity

**Q.** What about the “International normalized ratio (INR)” value ([5]; 0.01% NCT) of the same compound?
**A.** 1.2 (5×) and 1.3 (3×) and 1.1 (3×)

**Q.** And the “International normalized ratio (INR), mean value” ([5]; 0.01% NCT)?
**A.** 1.2

**Q.** And the “International normalized ratio (INR)” value ([5]; 0.025% NCT)?
**A.** 2.6 and 3.3 (2×) and 1.5 and 6 and 4.2 and 2.8 and 4.4 and 2 and 2.9 and 2.3

**Q.** What about the “International normalized ratio (INR), mean value” ([5]; 0.025% NCT) of the same compound?
**A.** 3.2

**Q.** And the tolerated intraperitoneal injection [6]?
**A.** tolerated up to one mL 1% NCT

**Q.** What about the “tolerability in topical and localized applications” value [7] of the same compound?
**A.** relatively safe and well-tolerated

**Q.** And the tolerability [8]?
**A.** good tolerability

**Q.** What about the “eradication of bacteria from the urinary bladder” value [9] of the same compound?
**A.** possible to eradicate bacteria from the urinary bladder
